Experimental data: patent publication US6358885B1, “Substituted phenylheterocyclic herbicides” (Mississippi State University, priority 1992, dated 2002)

Columns and labels:
Experiment in all cases: Test B preemergence/postemergence greenhouse plant response rating 0 to 10
Settings in all cases: 0 to 10 scale
cheatgrass = type: in vivo, Bromus secalinus
Summary of the method: (§1)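 Both application timings were run together: seeds got compound preemergence, and established seedlings (two to eighteen cm) got it postemergence. Non-phytotoxic solvent carried the chemical. Ratings are visual, versus controls, at twelve to sixteen days.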

bedstraw = type: in vivo, Galium aparine
Summary of the method: as §1

sugar beet = type: in vivo, Beta vulgaris
Summary of the method: as §1

barnyardgrass = type: in vivo, Echinochloa crus-galli
Summary of the method: as §1

sorghum = type: in vivo, Sorghum bicolor
Summary of the method: as §1

cotton = type: in vivo, Gossypium hirsutum
Summary of the method: as §1

giant foxtail = type: in vivo, Setaria faberii
Summary of the method: as §1

rice = type: in vivo, Oryza sativa
Summary of the method: as §1

blackgrass = type: in vivo, Alopecurus myosuroides
Summary of the method: as §1

chickweed = type: in vivo, Stellaria media
Summary of the method: as §1

wild oat = type: in vivo, Avena fatua
Summary of the method: as §1

rape = type: in vivo, Brassica napus
Summary of the method: as §1

soybean = type: in vivo, Glycine max
Summary of the method: as §1

velvetleaf = type: in vivo, Abutilon theophrasti
Summary of the method: as §1

corn = type: in vivo, Zea mays
Summary of the method: as §1

lambsquarters = type: in vivo, Chenopodium album
Summary of the method: as §1

morningglory = type: in vivo, Ipomoea hederacea
Summary of the method: as §1

wild buckwheat = type: in vivo, Polygonum convolvulus
Summary of the method: as §1

cocklebur = type: in vivo, Xanthium pensylvanicum
Summary of the method: as §1

purple nutsedge = type: in vivo, Cyperus rotundus
Summary of the method: as §1

barley = type: in vivo, Hordeum vulgare
Summary of the method: as §1

wheat = type: in vivo, Triticum aestivum
Summary of the method: as §1

crabgrass = type: in vivo, Digitaria spp.
Summary of the method: as §1

SMILES: CCC(=O)Oc1cc(-c2nn3c(c2Cl)CCCC3)c(F)cc1Cl [Compound 47]
- Plant response rating, Cheatgrass (cheatgrass; POSTEMERGENCE, Rate 50 g/ha): 4
- Plant response rating, Cheatgrass (cheatgrass; POSTEMERGENCE, Rate 200 g/ha): 4
- Plant response rating, Cheatgrass (cheatgrass; PREEMERGENCE, Rate 50 g/ha): 0
- Plant response rating, Cheatgrass (cheatgrass; Rate 200 g/ha, PREEMERGENCE): 0
- Plant response rating, Bedstraw (bedstraw; POSTEMERGENCE, Rate 50 g/ha): 9
- Plant response rating, Bedstraw (bedstraw; POSTEMERGENCE, Rate 200 g/ha): 10
- Plant response rating, Bedstraw (bedstraw; PREEMERGENCE, Rate 50 g/ha): 9
- Plant response rating, Bedstraw (bedstraw; Rate 200 g/ha, PREEMERGENCE): 9
- Plant response rating, Sugar beet (sugar beet; POSTEMERGENCE, Rate 50 g/ha): 10
- Plant response rating, Sugar beet (sugar beet; PREEMERGENCE, Rate 50 g/ha): 1
- Plant response rating, Sugar beet (sugar beet; Rate 200 g/ha, POSTEMERGENCE): 10
- Plant response rating, Sugar beet (sugar beet; Rate 200 g/ha, PREEMERGENCE): 8
- Plant response rating, Barnyardgrass (barnyardgrass; POSTEMERGENCE, Rate 50 g/ha): 6
- Plant response rating, Barnyardgrass (barnyardgrass; POSTEMERGENCE, Rate 200 g/ha): 9
- Plant response rating, Barnyardgrass (barnyardgrass; PREEMERGENCE, Rate 50 g/ha): 0
- Plant response rating, Barnyardgrass (barnyardgrass; Rate 200 g/ha, PREEMERGENCE): 0
- Plant response rating, Sorghum (sorghum; POSTEMERGENCE, Rate 50 g/ha): 3
- Plant response rating, Sorghum (sorghum; PREEMERGENCE, Rate 50 g/ha): 0
- Plant response rating, Sorghum (sorghum; Rate 200 g/ha, POSTEMERGENCE): 4
- Plant response rating, Sorghum (sorghum; Rate 200 g/ha, PREEMERGENCE): 0
- Plant response rating, Cotton (cotton; POSTEMERGENCE, Rate 50 g/ha): 10
- Plant response rating, Cotton (cotton; POSTEMERGENCE, Rate 200 g/ha): 10
- Plant response rating, Cotton (cotton; PREEMERGENCE, Rate 50 g/ha): 0
- Plant response rating, Cotton (cotton; Rate 200 g/ha, PREEMERGENCE): 2
- Plant response rating, Giant foxtail (giant foxtail; POSTEMERGENCE, Rate 50 g/ha): 4
- Plant response rating, Giant foxtail (giant foxtail; PREEMERGENCE, Rate 50 g/ha): 0
- Plant response rating, Giant foxtail (giant foxtail; Rate 200 g/ha, POSTEMERGENCE): 6
- Plant response rating, Giant foxtail (giant foxtail; Rate 200 g/ha, PREEMERGENCE): 5
- Plant response rating, Rice (rice; POSTEMERGENCE, Rate 50 g/ha): 4
- Plant response rating, Rice (rice; PREEMERGENCE, Rate 50 g/ha): 0
- Plant response rating, Rice (rice; Rate 200 g/ha, POSTEMERGENCE): 5
- Plant response rating, Rice (rice; Rate 200 g/ha, PREEMERGENCE): 0
- Plant response rating, Blackgrass (blackgrass; POSTEMERGENCE, Rate 50 g/ha): 4
- Plant response rating, Blackgrass (blackgrass; POSTEMERGENCE, Rate 200 g/ha): 8
- Plant response rating, Blackgrass (blackgrass; PREEMERGENCE, Rate 50 g/ha): 2
- Plant response rating, Blackgrass (blackgrass; Rate 200 g/ha, PREEMERGENCE): 3
- Plant response rating, Chickweed (chickweed; POSTEMERGENCE, Rate 50 g/ha): 9
- Plant response rating, Chickweed (chickweed; POSTEMERGENCE, Rate 200 g/ha): 9
- Plant response rating, Chickweed (chickweed; PREEMERGENCE, Rate 50 g/ha): 0
- Plant response rating, Chickweed (chickweed; Rate 200 g/ha, PREEMERGENCE): 2
- Plant response rating, Wild oat (wild oat; POSTEMERGENCE, Rate 50 g/ha): 3
- Plant response rating, Wild oat (wild oat; PREEMERGENCE, Rate 50 g/ha): 0
- Plant response rating, Wild oat (wild oat; Rate 200 g/ha, POSTEMERGENCE): 3
- Plant response rating, Rape (rape; POSTEMERGENCE, Rate 50 g/ha): 3
- Plant response rating, Rape (rape; PREEMERGENCE, Rate 50 g/ha): 1
- Plant response rating, Rape (rape; Rate 200 g/ha, POSTEMERGENCE): 6
- Plant response rating, Rape (rape; Rate 200 g/ha, PREEMERGENCE): 2
- Plant response rating, Soybean (soybean; POSTEMERGENCE, Rate 50 g/ha): 7
- Plant response rating, Soybean (soybean; PREEMERGENCE, Rate 50 g/ha): 0
- Plant response rating, Soybean (soybean; Rate 200 g/ha, POSTEMERGENCE): 7
- Plant response rating, Soybean (soybean; Rate 200 g/ha, PREEMERGENCE): 0
- Plant response rating, Velvetleaf (velvetleaf; POSTEMERGENCE, Rate 50 g/ha): 8
- Plant response rating, Velvetleaf (velvetleaf; PREEMERGENCE, Rate 50 g/ha): 2
- Plant response rating, Velvetleaf (velvetleaf; Rate 200 g/ha, POSTEMERGENCE): 9
- Plant response rating, Velvetleaf (velvetleaf; Rate 200 g/ha, PREEMERGENCE): 4
- Plant response rating, Corn (corn; POSTEMERGENCE, Rate 50 g/ha): 4
- Plant response rating, Corn (corn; POSTEMERGENCE, Rate 200 g/ha): 5
- Plant response rating, Corn (corn; PREEMERGENCE, Rate 50 g/ha): 0
- Plant response rating, Corn (corn; Rate 200 g/ha, PREEMERGENCE): 0
- Plant response rating, Lambsquarter (lambsquarters; POSTEMERGENCE, Rate 50 g/ha): 7
- Plant response rating, Lambsquarter (lambsquarters; PREEMERGENCE, Rate 50 g/ha): 9
- Plant response rating, Lambsquarter (lambsquarters; Rate 200 g/ha, POSTEMERGENCE): 10
- Plant response rating, Lambsquarter (lambsquarters; Rate 200 g/ha, PREEMERGENCE): 9
- Plant response rating, Morningglory (morningglory; POSTEMERGENCE, Rate 50 g/ha): 9
- Plant response rating, Morningglory (morningglory; PREEMERGENCE, Rate 50 g/ha): 1
- Plant response rating, Morningglory (morningglory; Rate 200 g/ha, POSTEMERGENCE): 10
- Plant response rating, Morningglory (morningglory; Rate 200 g/ha, PREEMERGENCE): 3
- Plant response rating, Wild buckwheat (wild buckwheat; POSTEMERGENCE, Rate 50 g/ha): 10
- Plant response rating, Wild buckwheat (wild buckwheat; PREEMERGENCE, Rate 50 g/ha): 0
- Plant response rating, Wild buckwheat (wild buckwheat; Rate 200 g/ha, POSTEMERGENCE): 10
- Plant response rating, Wild buckwheat (wild buckwheat; Rate 200 g/ha, PREEMERGENCE): 9
- Plant response rating, Cocklebur (cocklebur; POSTEMERGENCE, Rate 50 g/ha): 6
- Plant response rating, Cocklebur (cocklebur; POSTEMERGENCE, Rate 200 g/ha): 9
- Plant response rating, Cocklebur (cocklebur; PREEMERGENCE, Rate 50 g/ha): 2
- Plant response rating, Cocklebur (cocklebur; Rate 200 g/ha, PREEMERGENCE): 3
- Plant response rating, Nutsedge (purple nutsedge; POSTEMERGENCE, Rate 50 g/ha): 2
- Plant response rating, Nutsedge (purple nutsedge; PREEMERGENCE, Rate 50 g/ha): 0
- Plant response rating, Nutsedge (purple nutsedge; Rate 200 g/ha, POSTEMERGENCE): 8
- Plant response rating, Nutsedge (purple nutsedge; Rate 200 g/ha, PREEMERGENCE): 0
- Plant response rating, Barley (barley; POSTEMERGENCE, Rate 50 g/ha): 5
- Plant response rating, Barley (barley; POSTEMERGENCE, Rate 200 g/ha): 4
- Plant response rating, Barley (barley; PREEMERGENCE, Rate 50 g/ha): 0
- Plant response rating, Barley (barley; Rate 200 g/ha, PREEMERGENCE): 0
- Plant response rating, Wheat (wheat; POSTEMERGENCE, Rate 50 g/ha): 3
- Plant response rating, Wheat (wheat; PREEMERGENCE, Rate 50 g/ha): 0
- Plant response rating, Wheat (wheat; Rate 200 g/ha, POSTEMERGENCE): 6
- Plant response rating, Wheat (wheat; Rate 200 g/ha, PREEMERGENCE): 2
- Plant response rating, Crabgrass (crabgrass; POSTEMERGENCE, Rate 50 g/ha): 3
- Plant response rating, Crabgrass (crabgrass; POSTEMERGENCE, Rate 200 g/ha): 6
- Plant response rating, Crabgrass (crabgrass; PREEMERGENCE, Rate 50 g/ha): 0
- Plant response rating, Crabgrass (crabgrass; Rate 200 g/ha, PREEMERGENCE): 0
